Results on 48 compounds are retold here after patent US8299070B2, “Indole compounds and pharmaceutical use thereof” (Japan Tobacco Inc., priority 2009, dated 2012).

Some results are limits rather than exact numbers.

One assay has as its target T1, hITK enzyme (FLAG-tagged full-length hITK) (Homo sapiens, UniProt Q08881).
T1 construct: strongly expressing FLAG-tagged full-length hITK in Sf9 cells; FLAG; made in house; host or cells: Sf9 insect cells (ITK); Escherichia coli (GST-SLP76 substrate)
T1 sequence (Q08881 1-620): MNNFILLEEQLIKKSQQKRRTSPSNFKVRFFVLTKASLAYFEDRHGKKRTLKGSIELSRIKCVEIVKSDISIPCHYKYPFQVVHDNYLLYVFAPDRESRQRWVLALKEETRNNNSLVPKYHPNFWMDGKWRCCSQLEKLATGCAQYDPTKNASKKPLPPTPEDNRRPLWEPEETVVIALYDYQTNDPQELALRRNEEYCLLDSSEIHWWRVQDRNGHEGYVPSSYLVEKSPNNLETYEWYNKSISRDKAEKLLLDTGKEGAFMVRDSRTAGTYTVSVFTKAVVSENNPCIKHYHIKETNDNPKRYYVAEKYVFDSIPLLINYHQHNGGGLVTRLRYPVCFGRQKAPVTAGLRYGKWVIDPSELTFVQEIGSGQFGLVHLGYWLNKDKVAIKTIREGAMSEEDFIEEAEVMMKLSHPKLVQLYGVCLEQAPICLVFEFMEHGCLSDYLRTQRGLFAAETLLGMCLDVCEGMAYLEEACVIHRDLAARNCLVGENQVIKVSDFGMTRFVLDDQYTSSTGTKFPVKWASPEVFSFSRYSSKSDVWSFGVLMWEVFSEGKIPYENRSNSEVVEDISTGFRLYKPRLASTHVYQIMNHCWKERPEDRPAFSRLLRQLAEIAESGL
The experiment in a line: ITK inhibitory activity (HTRF kinase assay, biotinylated GST-SLP76 substrate). Particulars: IC50 calculated from the 2 test compound concentrations sandwiching 50% ITK inhibitory rate. The class given is biochemical. The essentials: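 Sf9-expressed hITK (50 ng/mL enzyme solution) reacted 10 min at RT in MOPS pH 7.0, 10 mmol/L MgCl2, 1 mmol/L DTT with E. coli SLP76 aa95–175 substrate; substrate solution held 100 µmol/L ATP (6 µmol/L for selected compounds). HTRF 665/620 ratio, blank-corrected; IC50 interpolated between two concentrations bracketing 50% inhibition.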
In general, IC50 refers to the point on the concentration scale where inhibition reaches its midpoint. With `CN(C(=O)CN1CCOC1=O)c1ccc2cc(-c3n[nH]c4c3CCC(C)(C)C4)[nH]c2c1` [Example 154], the IC50 is 2 nM. The same measure, in the same setting: then `CCC(OC)C(=O)N(C)c1ccc2cc(-c3n[nH]c4c3CCC(C)(C)C4)[nH]c2c1` (stereo not drawn) [Example 50], with 4 nM.

As for `CN(C)CCCN(C(=O)CC1CCOCC1)c1ccc2cc(-c3n[nH]c4c3CCC(C)(C)C4)[nH]c2c1` [Example 226], the IC50 is 2 nM. With `COCCN(c1ccc2cc(-c3n[nH]c4c3CCC(C)(C)C4)[nH]c2c1)C(=O)[C@H]1CC[C@@H](OC)CC1` [Example 267], the IC50 is 5 nM. Take `COCC(O)C(=O)N(C)c1ccc2cc(-c3n[nH]c4c3CCC(C)(C)C4)[nH]c2c1` (stereo not drawn) [Example 53]: the IC50 is 8 nM. For the compound `CC1(C)CCc2c(-c3cc4ccc(N(CCO)C(=O)C5CCCC5)cc4[nH]3)n[nH]c2C1` [Example 231], the IC50 is 2 nM. On to `CC(C)CC(=O)N(C)c1ccc2[nH]c(-c3n[nH]c4c3CCC(C)(C)C4)cc2c1` [Example 342], for which the IC50 is 245 nM. On to `CN(C(=O)CN1CCCC(C)(C)C1=O)c1ccc2cc(-c3n[nH]c4c3CCC(C)(C)C4)[nH]c2c1` [Example 174], for which the IC50 was 2 nM. For the compound `CN(C(=O)OCc1ccccc1)c1ccc2cc(-c3n[nH]c4c3CCC(C)(C)C4)[nH]c2c1` [Example 3, benzyl N-{2-(6,6-dimethyl-4,5,6,7-tetrahydro-1H-indazol-3-yl)-1H-indol-6-yl}-N-methylcarbamate], the IC50 is 39 nM. Still for that read-out and setting: then `CC1(C)CCc2c(-c3cc4ccc(N5CCC(C)(O)C5=O)cc4[nH]3)n[nH]c2C1` (stereo not drawn) [Example 244], with 23 nM.

Regarding `COCCNC(=O)c1ccc2[nH]c(-c3n[nH]c4c3CCC(C)(C)C4)cc2c1` [Example 310], the IC50 is 47 nM.

As for `CC1CCc2c(-c3cc4ccc(N(C)C(=O)c5ccccc5)cc4[nH]3)n[nH]c2C1` (stereo not drawn) [Example 357], the IC50 was 29 nM. In the case of `CN(CC(=O)N(C)c1ccc2cc(-c3n[nH]c4c3CCC(C)(C)C4)[nH]c2c1)C(=O)C1CC1` [Example 200], the IC50 is 1 nM. Take `CC1(C)CCc2c(-c3cc4cc(C(=O)NCCN5CCOCC5)ccc4[nH]3)n[nH]c2C1` [Example 322]: the IC50 was 41 nM.

As for `CC1(C)CCc2c(-c3cc4cc(C(=O)NCCOc5ccccc5)ccc4[nH]3)n[nH]c2C1` [Example 309], the IC50 is 102 nM. Same read-out and setting: to `CCC(=O)N(CCOC)c1ccc2cc(-c3n[nH]c4c3CCC(C)(C)C4)[nH]c2c1` [Example 212] belongs 5 nM; to `CO[C@H]1CCCN(C(C)C(=O)N(C)c2ccc3cc(-c4n[nH]c5c4CCC(C)(C)C5)[nH]c3c2)C1` (stereo partly drawn) [Example 116], 9 nM; to `CO[C@H]1CC[C@@H](C(=O)N(CCO)c2ccc3cc(-c4n[nH]c5c4CCC(C)(C)C5)[nH]c3c2)CC1` [Example 240], 3 nM.

Regarding `CC(=O)Nc1ccc2cc(-c3n[nH]c4c3CCC(C)(C)C4)[nH]c2c1` [Example 374], the IC50 is 130 nM. Regarding `CN(C(=O)OCc1ccccc1)c1ccc2cc(-c3n[nH]c4c3CC(OCc3ccccc3)C(C)(C)C4)[nH]c2c1` (stereo not drawn) [Example 363], the IC50 is 485 nM. Still for that read-out and setting: then `CCC(=O)N(C)c1ccc2cc(-c3n[nH]c4c3CCC(C)C4)[nH]c2c1` (stereo not drawn) [Example 355], with 9 nM; and `CN(C(=O)CCO)c1ccc2cc(-c3n[nH]c4c3CCC(C)(C)C4)[nH]c2c1` [Example 63], with 6 nM.

Regarding `CCCC(=O)N(C)c1ccc2cc(-c3n[nH]c4c3CCC(C)(C)C4)[nH]c2c1` [Example 38], the IC50 is 5 nM. For `CCN(C(=O)CN(C)C(C)=O)c1ccc2cc(-c3n[nH]c4c3CCC(C)(C)C4)[nH]c2c1` [Example 291], the IC50 is 1 nM. Regarding `CC(N(C)C(=O)c1ccc2cc(-c3n[nH]c4c3CCC(C)(C)C4)[nH]c2c1)C(C)(C)C` (stereo not drawn) [Example 18], the IC50 was 45 nM. Take `CN(c1ccc2cc(-c3n[nH]c4c3CCC(C)(C)C4)[nH]c2c1)C(=O)[C@H]1CC[C@@H](O)CC1` [Example 84]: the IC50 is below 3 nM. As to `CCC(=O)N(C)c1ccc2cc(-c3n[nH]c4c3CCC(C)(C)C4)[nH]c2c1` [Example 70], the IC50 is 3 nM.

Consider `CC(C)C(=O)N(C)CC(=O)N(C)c1ccc2cc(-c3n[nH]c4c3CCC(C)(C)C4)[nH]c2c1` [Example 199], for which the IC50 is 2 nM.

With `CC(C(=O)N(C)c1ccc2cc(-c3n[nH]c4c3CCC(C)(C)C4)[nH]c2c1)N1CCCCC1` (stereo not drawn) [Example 122], the IC50 was 20 nM. Regarding `CC1(C)CCc2c(-c3cc4cc(C(=O)NCc5nccs5)ccc4[nH]3)n[nH]c2C1` [Example 316], the IC50 is 47 nM. The same measure, in the same setting: to `CCN(C(=O)CC1CCC(OC)CC1)c1ccc2cc(-c3n[nH]c4c3CCC(C)(C)C4)[nH]c2c1` (stereo not drawn) [Example 273] belongs 11 nM; to `CC(C)OCC(O)C(=O)N(C)c1ccc2cc(-c3n[nH]c4c3CCC(C)(C)C4)[nH]c2c1` (stereo not drawn) [Example 132], 13 nM. As for `CC(C(=O)N(C)c1ccc2cc(-c3n[nH]c4c3CCC(C)(C)C4)[nH]c2c1)C1CCOCC1` (stereo not drawn) [Example 98], the IC50 is 3 nM. Same read-out and setting: then `CN(C(=O)CN1CCOCC1)c1ccc2cc(-c3n[nH]c4c3CCC(C)(C)C4)[nH]c2c1` [Example 80], with 3 nM; and `CC1(C)CCc2c(-c3cc4ccc(N(CCO)C(=O)CC5CCOCC5)cc4[nH]3)n[nH]c2C1` [Example 249], with 7 nM; and `CC(C(=O)N(C)c1ccc2cc(-c3n[nH]c4c3CCC(C)(C)C4)[nH]c2c1)N1C[C@@H](C)O[C@@H](C)C1` (stereo partly drawn) [Example 121], with 5 nM. With `CC1(C)CCc2c(-c3cc4ccc(N(CCO)C(=O)CN5CCOCC5)cc4[nH]3)n[nH]c2C1` [Example 254], the IC50 is 5 nM. As to `CN(C(=O)C1CCC(=O)N1)c1ccc2cc(-c3n[nH]c4c3CCC(C)(C)C4)[nH]c2c1` (stereo not drawn) [Example 128], the IC50 is 2 nM. Consider `CN(C(=O)CC1CCCCC1)c1ccc2cc(-c3n[nH]c4c3CCC(C)(C)C4)[nH]c2c1` [Example 72], for which the IC50 was 9 nM. Same read-out and setting: then `CN(C(=O)CN1CCC(C)(C)C1=O)c1ccc2cc(-c3n[nH]c4c3CCC(C)(C)C4)[nH]c2c1` [Example 183], with 1 nM. For the compound `CCC(=O)N(C)c1ccc2cc(-c3n[nH]c4c3CCCC4)[nH]c2c1` [Example 351], the IC50 is 24 nM.

In the case of `CN(C(=O)Cn1ccnc1)c1ccc2cc(-c3n[nH]c4c3CCC(C)(C)C4)[nH]c2c1` [Example 89], the IC50 was below 3 nM. In the case of `CN(C)CCN(C(=O)CC1CCCCC1)c1ccc2cc(-c3n[nH]c4c3CCC(C)(C)C4)[nH]c2c1` [Example 219], the IC50 is 4 nM. Consider `CN(CC(=O)N(C)c1ccc2cc(-c3n[nH]c4c3CCC(C)(C)C4)[nH]c2c1)C(=O)OCc1ccccc1` [Example 178], for which the IC50 is 4 nM. Take `CN(C(=O)c1ccccc1)c1ccc2cc(-c3n[nH]c4c3CCC(C)(C)C4)[nH]c2c1` [Example 30]: the IC50 is 10 nM. For the compound `CCC(=O)Nc1ccc2[nH]c(-c3n[nH]c4c3CCC(C)(C)C4)cc2c1` [Example 345], the IC50 is 88 nM. For the compound `CC1(C)CCc2c(-c3cc4ccc(N(CCO)C(=O)CN5CCCCCC5=O)cc4[nH]3)n[nH]c2C1` [Example 256], the IC50 is 1 nM.

The same assay, now with this note: at 30 nM test compound; read-out: ITK inhibitory rate (%).
Take `CC(C)C(=O)N(C)[C@@H](C)C(=O)N(C)c1ccc2cc(-c3n[nH]c4c3CCC(C)(C)C4)[nH]c2c1` [Example 204]: the inhibition at 0.03 µM was determined as 49.2%.
